Measured values from PMC11694131 (Haematologica, 2024).
Where two headings read alike, the source gives them in different places.

Columns and labels:
[1] = tested on: CCRF-CEM; assay: CellTiter-Glo viability, CCRF-CEM; assay type: cell-based
[2] = tested on: RS4;11; assay: CellTiter-Glo viability, RS4; assay type: cell-based; details: for IC50: Homo sapiens, RS4-11, 24 h, read-out: IC50, CellTiter-Glo
[3] = tested on: LOUCY; assay: CellTiter-Glo viability, LOUCY; assay type: cell-based; details: read-out: IC50, CellTiter-Glo
[4] = tested on: MOLT4; assay: CellTiter-Glo viability, MOLT4; assay type: cell-based; details: read-out: IC50, CellTiter-Glo
[5] = tested on: PF-382; assay: CellTiter-Glo viability, PF-382; assay type: cell-based; details: read-out: IC50, CellTiter-Glo
[6] = tested on: primary CLL cells cultured with or without NK Tert stroma; assay: Primary CLL cells with or without NK Tert stroma, Annexin V / TMRM; assay type: cell-based; details: Homo sapiens, CLL cell
[7] = tested on: platelets; assay: 14-day repeat-dose non-GLP platelet toxicity study in dogs; assay type: in vivo, dog; details: oral once daily
[8] = tested on: treatment-naïve primary CLL cells; assay: TMRM / Annexin V apoptosis assay, treatment-naïve primary CLL cells; assay type: cell-based; details: Homo sapiens, CLL cell, 18 h, read-out: IC50, apoptosis (TMRM and Annexin V)
[9] = tested on: primary CLL cells co-cultured on HS-5 stromal cells; assay: Primary CLL cells co-cultured on HS-5 stroma, Annexin V / TMRM; assay type: cell-based, human; details: HS-5 co-culture 24 hr
[10] = tested on: venetoclax-relapsed primary CLL cells; assay: TMRM / Annexin V apoptosis assay, venetoclax-relapsed primary CLL cells; assay type: cell-based; details: Homo sapiens, CLL cell, read-out: IC50, apoptosis (TMRM and Annexin V)
[11] = in vitro; details: human
[12] = Single-dose dog PK and platelet toxicity study; assay type: in vivo; details: 25 mg/kg single oral dose
[13] = tested on: OSU-CLL xenograft; assay: OSU-CLL xenograft; assay type: in vivo, mouse; details: 50 mg/kg daily oral gavage
[14] = tested on: RS4;11 cells with WT BCL2; assay: TMRM / Annexin V staining, RS4; assay type: cell-based; details: Homo sapiens, RS4-11, 72 h, read-out: IC50, TMRM / Annexin V
[15] = tested on: RS4;11 WT BCL2 xenograft; assay: RS4; assay type: in vivo, mouse; details: 6.25 mg/kg orally once daily for 28 days
[16] = tested on: OSU-CLL BCL2 knockout (KO) cells; assay: CellTiter-Glo viability, OSU-CLL BCL2 KO; assay type: cell-based; details: 72 hr, above 200 nM
[17] = read-out: IC50, CLL cells co-cultured with NK Tert cells
[18] = read-out: IC50, CLL cells without stromal protection

Row | Structure (SMILES) | IC50 [6, 17] | IC50 [6, 18] | IC50 [2] | IC50 ([3]; 24 h) | IC50 [8] | effect of HS-5 stroma on sensitivity of CLL cells [9] | IC50 [10] | IC50 [11] | maximum reduction in platelets [12] | further results
1 | Cc1c(-c2ccc(N3CCc4cccc(C(=O)Nc5nc6ccccc6s5)c4C3)nc2C(=O)O)cnn1CC12CC3CC(CC(C3)C1)C2 [A-1331852] | – | – | – | – | – | – | – | – | – | IC50 ([1]; read-out: IC50, CellTiter-Glo, 24 hr): 13.9 nM; IC50, CellTiter-Glo ([2]; RS4;11, 24 hr): not effective; IC50 ([3]; LOUCY, 24 hr): 130 nM; IC50 ([4]; MOLT4, 24 hr): 5.5 nM; IC50 ([5]; PF-382, 24 hr): 46.6 nM
2 | CC1(C)CCC(c2ccc(Cl)cc2)=C(CN2CCN(c3ccc(C(=O)NS(=O)(=O)c4ccc(N[C@H](CCN5CCOCC5)CSc5ccccc5)c(S(=O)(=O)C(F)(F)F)c4)cc3)CC2)C1 [navitoclax] | 16 nM | 5.9 nM | 42.1 nM | 47.4 nM | 10.1 nM | does not alter the sensitivity | 4.13 nM | 170 nM | 97% | IC50 ([1]; Homo sapiens, 24 h, read-out: IC50, CellTiter-Glo): 492 nM; dose at which platelet toxicity was induced [7]: > 3 mg/kg; IC50 ([4]; Homo sapiens, MOLT-4, 24 h): 291 nM; IC50 ([5]; Homo sapiens, PF-382, 24 h): 379 nM
3 | CC1(C)CCC(CN2CCN(c3ccc(C(=O)NS(=O)(=O)c4ccc(NCC5CCOCC5)c([N+](=O)[O-])c4)c(Oc4cnc5[nH]ccc5c4)c3)CC2)=C(c2ccc(Cl)cc2)C1 [venetoclax] | 1.2 nM | 0.908 nM | 4.7 nM | 125 nM | 3.8 nM | does not alter the sensitivity | 16 nM | 25000 nM | 6% | platelet counts throughout treatment [13]: maintained similar platelet counts; survival compared to vehicle [13]: significantly improved the survival; IC50 [14]: 3.58 nM; median survival [15]: 59 days; tumor volume upon stopping treatment [15]: relapsed and exhibited increased tumor growth; plasma persistence / clearance at 30 hr post treatment [12]: persisted in plasma; plateau of killing [16]: 50%
